Reference: patent publication US6774131B1, “Remedies for endothelin-induced diseases” (Yamanouchi Pharmaceutical Co., Ltd., priority 2000, dated 2004)

Experiments:
[1] = test system: MC3T3-E1, mouse osteoblast-like cells; assay: ET-1-induced increase of intracellular Ca2+ concentration in MC3T3-E1; format: cell-based
Experimental: (§1) MC3T3-E1, mouse osteoblast-like cells, was used in these experiments (Journal of Cell Biology,96(1),191-198,1983).
The cell was cultured in a cell disk (of a 13.5-mm diameter) until the cell reached confluency; thereafter, the cell was then cultured in the absence of serum, for about 12 hours or longer and used for this experiment. Fura2-AM (4 μM) was added to the cell in the Hank's balanced salt solution (HBSS) (140 mM NaCl, 4 MM KCl, 1 mM K2HPO4, 1 mM MgCl2, 1 mM CaCl2, 10 mM glucose and 20 mM Hepes, pH-7.4) and incubated at 37° C. for one hour. The cell disk was fixed in a quartz cell placing therein HBSS; the quartz cell was fixed in an intracellular Ca^2+ assay unit (CAF-110). […] Intracellular Ca^2+ concentration was estimated by measuring and detecting the ratio of fluorescence intensities at 500 nm with excitation wave lengths of 340/380 nm and calculating intracellular Ca^2+ concentration using designated formula (J.Biol.Chem.,260,3440-3450,1985). […]
(§2) The results are shown in the form of mean±standard error. The significant difference between groups was analyzed by one-way analysis of variance, to calculate the p-values by the Dunnett's multiple range test. […] At each experiment, the EC50 value of ET-1 and the IC50 value of the Compound 1 were calculated by the Logistic regression analysis.

[2] = test system: MC3T3-E1, mouse osteoblast-like cells; assay: ET-1-induced cell number increase in MC3T3-E1 (cell counting kit, WST-1); format: cell-based
Experimental: as §1
Cell number was counted by using a reagent solution of a cell counting kit (DOJINDO). The cells were seeded at a density of 1.0×10^4 cells/well in a 24-well plate using 0.5% FCS culture medium and cultured for one day. Subsequently, vehicle or ET-1 was added to the plate and cultured for 72 hours. Continuously, a reagent solution was added at 100 μl/well to the culture and incubated at 37° C. for 3 hours. After this reaction, 200-μl portions were transferred from the individual wells of the 24-well plate to a 96-well plate, to measure the absorbance (at a wave length of 405 nm and a reference wave length of 650 nm) with a plate reader. As a control, the count of a culture to which the vehicle was added was defined 100%, thus the percentage increase of cell number was calculated. […]
as §2

[3] = test system: prostate cancer patients; assay: Clinical study in prostate cancer patients; format: in vivo, human
Experimental: A clinical study was carried out under the following conditions using the patients suffering from prostate cancer.
Subjects: eighteen patients of at least 45 years of age with prostate cancer(stage D2) who are hormone-refractory or have relapsed after anti-androgen therapy.
Strength: 2,10 and 40 mg tablets
Dosage: 2,4,10,20,60,120and 240 mg/day-dose frequency was once daily ot twice daily
Duration of treatment: four weeks (28 days)
Parameters for evalution: Evaluations and measurements were made for the following items before and after the administration.
(1) Prostate specific antigen (PSA)
(2) Born metabolism markers (bone alkaline phosphatase or ratio of deoxypyridinoline/creatinine)
(3) Bone pain (change of visual analogue scale(VAS)/use of analgesics)

[4] = Plasma concentration when orally administered to humans; format: in vivo, human
Experimental: For the purpose of the assessment of the pharmacokinetics, tolerance and safety of Compound 1 when orally administered, the Compound 1 was administered at a single dose of 10 mg to 3 subjects of progressive prostate cancer patients after prostatectomy. So as to assay the plasma concentration of intact Compound 1, blood of 6 ml was collected in a lithium heparin-containing polyethylene tube, prior to administration and at individual times of 30 minutes, one hour, 1.5 hour, 2 hours, 3 hours, 4 hours, 6 hours, 8 hours, 12 hours, 24 hours, 36hours and 48hours after administration, followed by immediate centrifugation (4° C., 10 minutes, 3500 rpm), to recover the plasma. The plasma samples were stored under freezing at −70° C. until the concentration was assayed. The plasma concentration was assayed by the LC-MS/MS method.

[5] = target: T1, human ETA receptor (Homo sapiens, UniProt P25101); conditions: Compound 1: WO97/22595; ABT-627: J.Pharmacol.Exp.Ther.,276,473-481,1996; read-out: affinity to human ETA receptor; cited from earlier work
T1 sequence (P25101 21-427): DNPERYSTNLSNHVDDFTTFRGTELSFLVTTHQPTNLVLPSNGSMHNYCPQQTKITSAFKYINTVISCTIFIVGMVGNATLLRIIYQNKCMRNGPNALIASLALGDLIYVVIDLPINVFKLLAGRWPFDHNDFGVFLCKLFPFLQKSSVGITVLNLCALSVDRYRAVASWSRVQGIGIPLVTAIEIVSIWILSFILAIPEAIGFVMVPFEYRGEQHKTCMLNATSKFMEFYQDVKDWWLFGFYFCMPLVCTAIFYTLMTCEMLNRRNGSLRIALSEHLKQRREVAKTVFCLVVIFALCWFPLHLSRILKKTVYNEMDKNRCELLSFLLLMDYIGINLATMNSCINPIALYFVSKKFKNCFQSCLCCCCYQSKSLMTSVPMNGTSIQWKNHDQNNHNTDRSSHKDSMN

[6] = 2-240 mg/day, four weeks, eighteen patients
[7] = single oral dose 10 mg, prostate cancer patients, plasma

## COc1ccccc1Oc1c(NS(=O)(=O)C=Cc2ccccc2)nc(-c2ncccn2)nc1OC.[K] [Compound 1, N-[6-methoxy-5-(2-methoxyphenoxy)-2-(2-pyrimidinyl)-4-pyrimidinyl]-2-phenylethenesulfoneamide•potassium salt]
[1]; ET-1 10^−8 M
  IC50: 10.2 nM
[2]; ET-1 10^−9 M
  IC50: 9.54 nM
[3]; 2 mg vs 10 mg
  effective dose relative to the minimum effective dose of ABT-627: ⅕
[3]; [6]
  patients with decreased bone specific alkaline phosphatase: eleven (out of eighteen)
  patients with improved pain score VAS: nine (out of eighteen)
  patients with improved prostate cancer marker PSA: ten
  patients with improved ratio of deoxypyridinoline/creatinine: fourteen (out of eighteen)
  patients with reduced analgesics: four (out of eighteen)
  patients with stabilized PSA: two
[3]; Test Example 5, prostate cancer patients
  dose from which effective: ≥ 2 mg
[3]; oral tablets, four weeks
  dose from which effective in improving each observed item: ≥ 2 mg/day
[4]; oral, humans, listed as The effective component of the invention
  AUC ratio Compound 1 (10 mg)/ABT-627 (20 mg): about 18 fold
[4]; [7]
  AUC: 14700 ng·h/mL
  Cmax: 1000 ng/mL
  T max: 2 h
  T ½: 13 h
[5]
  Ki: 0.697 nM

## ET-1: endothelin; induces pain in humans and experimental animals; used as stimulus of pain, Ca2+ increase and cell growth [reference compound]
[1]; ET-1 10^−12 to 10^−6 M
  EC50: 7.39 nM
[2]; ET-1 10^−12 to 10^−6 M, WST-1
  EC50: 0.022 nM
